This is an account of results in patent publication US20260034253A1, “NECTIN-4 MINIPROTEIN CONJUGATES” (Aktis Oncology, Inc., priority 2022, published 2026).

Numbered stars: 1 amine (or outer) side, 2 acyl side, 3 side chain; on linkers, the order of the positions; unused ones are H or OH. Bridge positions count the residues as written; N and C are the ends. Square brackets hold non-standard residues; d marks the D form. Ends that are not written are not given here. * marks the point of attachment. Biotin = O=C1N[C@H]2[C@H](CS[C@H]2CCCCC(=O)*)N1; X1 = O=C([C@H](CCCCO)N[*:1])[*:2]; Cit = NC(=O)NCCC[C@H](N)C(=O)O; PEG4 = NCCOCCOCCOCCOCCC(=O)O

The assay concerns the target T1, human Nectin-4 (Homo sapiens, UniProt Q96NY8).
T1 sequence (Q96NY8 32-510): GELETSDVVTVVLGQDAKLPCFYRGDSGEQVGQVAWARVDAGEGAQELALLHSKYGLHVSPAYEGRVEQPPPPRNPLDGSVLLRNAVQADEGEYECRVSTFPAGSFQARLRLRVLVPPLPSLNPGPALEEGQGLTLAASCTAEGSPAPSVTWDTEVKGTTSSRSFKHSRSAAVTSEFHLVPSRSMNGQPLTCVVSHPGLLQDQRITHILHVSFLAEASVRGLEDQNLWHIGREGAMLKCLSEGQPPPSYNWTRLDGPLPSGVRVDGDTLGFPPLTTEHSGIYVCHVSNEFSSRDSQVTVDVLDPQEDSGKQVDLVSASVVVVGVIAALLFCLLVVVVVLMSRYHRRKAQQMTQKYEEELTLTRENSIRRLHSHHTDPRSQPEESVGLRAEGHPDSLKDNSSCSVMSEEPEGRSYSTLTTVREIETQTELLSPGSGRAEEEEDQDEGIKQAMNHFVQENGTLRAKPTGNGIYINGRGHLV
Kind of assay: Surface plasmon resonance (Biacore T200) binding to human Nectin-4. Conditions: Table 2B, binding affinities of exemplary compounds to Nectin-4, read-out: Binding Affinity. The protocol:
Peptide binding affinity to the target protein was measured by SPR using a Biacore T200 instrument. The target protein was covalently coupled to a Biacore chip surface using free amine-coupling chemistry (NHS/EDC) and all uncoupled sites were blocked with ethanolamine. Free peptides were flowed over the target protein surface in increasing concentrations to measure association (KA) and dissociation ([…]) to calculate the equilibrium dissociation constant (KD) using an appropriate binding model (see, e.g., Nikolas Stroth, J Biol Methods. 2016; 3 (1)).
In all figures (FIGS. 1A, 1B, 2A, and 2B), lines on graphs are labeled from top to bottom, beginning with letter “a,” and the corresponding concentration is noted to the right of the figure, next to the letter designating each line.
Surface plasmon resonance (SPR) analyses were performed using Biacore T200 (GE Healthcare). Target protein (“ligand”) was immobilized to a CM5 Series S sensor chip (Cytiva) using amine-coupling chemistry. Running buffer was 0.05% Surfactant P20 in HEPES buffered saline (HBS-P), pH 7.4 (Cytiva). Immobilization was performed at 25° C. Carboxyl groups in each flow cell were activated using a 1:1 mixture of 0.4 M 1-ethyl-3-(3-dimethylaminopropyl)-carbodiimide in water (EDC) and 0.1 M N-hydroxysuccinimide in water (NHS) for 7 minutes. The ligand was prepared in 10 mM Sodium acetate pH 5 (Cytiva). Pulsatile injections were made to target a specific immobilization level. Any remaining amine-reactive esters on the chip surface were blocked with a 7-minute injection of 1 M ethanolamine, pH 8.5. Three 10-second pulses of 50 mM Sodium hydroxide were then made to remove any unbound ligand. Reference cells were modified using amine coupling chemistry, omitting ligand injection.
Increase in signal (RU) is proportional to an increase in binding events between the analyte and ligand surface. The injection was then stopped, and dissociation was measured. The resulting sensorgram has reference surface and blank injection subtracted prior to curve fitting. Measured association (ka, 1/M^s−1) and dissociation (kd, s^−1) were fit to a 1:1 binding model to calculate an equilibrium dissociation constant, KD(M) for each analyte. Equilibrium binding constants (KD) and binding inhibition constants (Ki) estimated from surface plasmon resonance (SPR) or DELFIA® binding assays for exemplary compounds as set forth in Table 2A.
In this example, affinity for mouse Nectin-4 (FIG. 3A) and human Nectin-4 (FIG. 3B) were measured using a 1:1 binding model at twenty-five degrees Celsius. In both of FIGS. 3A and 3B, lines on graphs were labeled from top to bottom, beginning with letter a, and the corresponding concentration was noted to the right of the figure.
On the technique in general: Surface plasmon resonance follows binding to a sensor surface in real time, without labels.
Take `CC[C@H](C)[C@@H]1NC(=O)[C@H](Cc2ccc(O)cc2)NC(=O)[C@H](CO)NC(=O)[C@@H]2CSSC[C@@H](C(=O)N[C@@H](CO)C(=O)O)NC(=O)CNC(=O)[C@H](CC(C)C)NC(=O)[C@H](CC(N)=O)NC(=O)[C@H](CC(=O)O)NC(=O)[C@H](CC(C)C)NC(=O)[C@H]([C@@H](C)CC)NC(=O)[C@H](CCC(=O)O)NC(=O)[C@H](CCC(=O)O)NC(=O)[C@H]([C@@H](C)CC)NC(=O)[C@H](CSSC[C@H](NC(=O)CCOCCOCCOCCOCCNC(=O)CCCC[C@@H]3SC[C@@H]4NC(=O)N[C@@H]43)C(=O)N[C@@H](CCC(=O)O)C(=O)N[C@@H](Cc3ccc(O)cc3)C(=O)N[C@@H](CC(=O)O)C(=O)N[C@@H](CCC(=O)O)C(=O)N[C@@H](CCC(=O)O)C(=O)N[C@@H](Cc3ccccc3)C(=O)N[C@@H](Cc3ccccc3)C(=O)N[C@@H]([C@@H](C)O)C(=O)N[C@@H](C)C(=O)N[C@@H](CC(C)C)C(=O)N[C@@H](CCCCN)C(=O)N[C@@H](CCCNC(=N)N)C(=O)N[C@@H](CC(C)C)C(=O)N[C@@H](CCCNC(=N)N)C(=O)NCC(=O)NCC(=O)N[C@@H](CC(=O)O)C(=O)N[C@@H]([C@@H](C)CC)C(=O)N2)NC(=O)[C@H](CC(C)C)NC(=O)CNC(=O)[C@@H]2CCCN2C(=O)[C@H](CC(C)C)NC(=O)[C@H](Cc2ccc(O)cc2)NC(=O)[C@H](CCC(N)=O)NC(=O)[C@H](Cc2ccccc2)NC(=O)[C@H](CO)NC(=O)[C@H](C)NC(=O)[C@H](CCC(N)=O)NC1=O` [Compound C179]: the Kd was found to be 1.8 nM. For “{Biotin-PEG4}-CDYDEEFFTALKRLRGDDICEYIQASFQYLPGLCIEEILDNLGCS-OH (disulfide 1-34, 20-44) [Compound C191]”, the Kd was determined as 1.4 nM. With “{Biotin-PEG4}-CDYDEEFFTALKRLRGGDICSYIQASFQYLPGLCIEEILDNLGCS (disulfide 1-34, 20-44) [Compound C189]”, the Kd came out at 1.1 nM. Take “{Biotin-PEG4}-CDYDEQFFTALKRLRGDDICEYIQASFQYLPGLCIEEILDNLGCS (disulfide 1-34, 20-44) [Compound C193]”: the Kd was 1 nM. For the molecule “{Biotin-PEG4}-CEYDEEFFTALAQLRGGDICYYIQAKFQYLPGLCIEEILDNLGCS (disulfide 1-34, 20-44) [Compound C162]”, the Kd was 8.8 nM. Turning to “{Biotin-PEG4}-CEYDEEFFTALARLRGADICYYIQAKFQYLPGDCIEEILDNLGCS (disulfide 1-34, 20-44) [Compound C140]”, the Kd was determined as 1.1 nM. Regarding “{Biotin-PEG4}-CEYDEEFFTALARLRGGDICDYIQAKFQYLPGLCIAEILDNLGCS (disulfide 1-34, 20-44) [Compound C157]”, the Kd was 1.1 nM.

Take “{Biotin-PEG4}-CEYDEEFFTALARLRGGDICEYIQAKFQYLEGLCIEEILDNLGCS-OH (disulfide 1-34, 20-44) [Compound C150]”: the Kd was determined as 1 nM.

For the molecule “{Biotin-PEG4}-CEYDEEFFTALARLRGGDICQYIQAKFQYLPGQCIEEILDNLGCS-OH (disulfide 1-34, 20-44) [Compound C149]”, the Kd stood at 0.75 nM. As for “{Biotin-PEG4}-CEYDEEFFTALARLRGGDICYYILAKFQYLPGECIEEILDNLGCS (disulfide 1-34, 20-44) [Compound C145]”, the Kd worked out at 1.3 nM. The result for “{Biotin-PEG4}-CEYDEEFFTALARLRGGDICYYIQAKFQYLPKLCIEEILDNLGCS (disulfide 1-34, 20-44) [Compound C166]” reads 0.75 nM; that for “{Biotin-PEG4}-CEYDEEFFTALARLRGGDICYYIQA[X1]FQYLPGLCIEEILDNLGCS-OH (disulfide 1-34, 20-44) [Compound C164]”, 5 nM. The result for “{Biotin-PEG4}-CEYDEEFFTALARLRGSDICLYIQAKFQYLPGLCIEEILDNLGCS (disulfide 1-34, 20-44) [Compound C156]” reads 1.1 nM.

With “{Biotin-PEG4}-CEYDEEFFTALASLRGGDICYYIQAKFQYLPGLCIEEILDNLGCS-OH (disulfide 1-34, 20-44) [Compound C161]”, the Kd is 7.5 nM. Turning to “{Biotin-PEG4}-CEYDEEFFTALA[Cit]LRGDDICSYIQA[X1]FQYLPGLCIEEILDNLGCS-OH (disulfide 1-34, 20-44) [Compound C170]”, the Kd was determined as 8.8 nM. With “{Biotin-PEG4}-CEYDEEFFTALKRLRGADICDYIQASFQYLPGLCIEEILDNLGCS (disulfide 1-34, 20-44) [Compound C195]”, the Kd is 2.3 nM. For “{Biotin-PEG4}-CEYDEEFFTALKRLRGDDICSYIQASFQYLPGLCIEEILDNLGCS (disulfide 1-34, 20-44) [Compound C182]”, the Kd was 3 nM.

With “{Biotin-PEG4}-CEYDEEFFTALKRLRGGDICDYIQASFQYLPGECIEEILDNLGCS (disulfide 1-34, 20-44) [Compound C203]”, the Kd turned out to be 2.3 nM. Next, “{Biotin-PEG4}-CEYDEEFFTALKRLRGGDICDYIQASFQYLPGLCIEEILDNLGCS-OH (disulfide 1-34, 20-44) [Compound C200]”: 2 nM; “{Biotin-PEG4}-CEYDEEFFTALKRLRGGDICEYIQAAFQYLPGLCIEEILDNLGCS (disulfide 1-34, 20-44) [Compound C198]”: 2.3 nM; “{Biotin-PEG4}-CEYDEEFFTALKRLRGGDICEYIQASFQYLPGECIEEILDNLGCS (disulfide 1-34, 20-44) [Compound C202]”: 2.2 nM. On to “{Biotin-PEG4}-CEYDEQFFTALKRLRGADICEYIQASFQYLPGLCIEEILDNLGCS (disulfide 1-34, 20-44) [Compound C183]”, for which the Kd was 1.2 nM. Next, “{Biotin-PEG4}-CEYDEQFFTALKRLRGADICSYIQASFQYLPGLCIEEILDNLGCS (disulfide 1-34, 20-44) [Compound C185]”: 1 nM; “{Biotin-PEG4}-CEYDGEFFTALARLRGADICEYIQAKFQYYPGLCIEEILDNLGCS (disulfide 1-34, 20-44) [Compound C144]”: 3.7 nM.

With “{Biotin-PEG4}-CEYDGEFFTALARLRGGDICQYIQAKFQYLPGLCIEEILDNLGCS-OH (disulfide 1-34, 20-44) [Compound C158]”, the Kd was 1.1 nM.
